{
  "source": "ChEMBL document CHEMBL5113392",
  "about": "“Novel hybrid pyrrolidinedione-thiazolidinones as potential anticancer agents: Synthesis and biological evaluation” (Eur J Med Chem, 2022)",
  "key": {"Jurkat [1]": {"test_system": "Jurkat", "experiment": "Anticancer activity against human Jurkat cells assessed as cell growth inhibition incubated for 72 hrs by MTT assay", "assay_type": "functional"}, "A549": {"test_system": "A549", "experiment": "Anticancer activity against human A549 cells assessed as cell growth inhibition incubated for 72 hrs by MTT assay", "assay_type": "functional"}, "MCF7": {"test_system": "MCF7", "experiment": "Anticancer activity against human MCF7 cells assessed as cell growth inhibition incubated for 72 hrs by MTT assay", "assay_type": "functional"}, "MDA-MB-231": {"test_system": "MDA-MB-231", "experiment": "Anticancer activity against human MDA-MB-231 cells assessed as cell growth inhibition incubated for 72 hrs by MTT assay", "assay_type": "functional"}, "KB 3-1": {"test_system": "KB 3-1", "experiment": "Anticancer activity against human KB 3-1 cells assessed as cell growth inhibition incubated for 72 hrs by MTT assay", "assay_type": "functional"}, "HeLa": {"test_system": "HeLa", "experiment": "Anticancer activity against human HeLa cells assessed as cell growth inhibition incubated for 72 hrs by MTT assay", "assay_type": "functional"}, "HCT-116 [2]": {"test_system": "HCT-116", "experiment": "Anticancer activity against human HCT-116 cells assessed as cell growth inhibition incubated for 72 hrs by MTT assay", "assay_type": "functional"}, "[3]": {"experiment": "Anticancer activity against human HCT116-p53-null cells assessed as cell growth inhibition incubated for 72 hrs by MTT assay", "assay_type": "functional"}, "U-251": {"test_system": "U-251", "experiment": "Anticancer activity against human U-251 cells assessed as cell growth inhibition incubated for 72 hrs by MTT assay", "assay_type": "functional"}, "SK-OV-3": {"test_system": "SK-OV-3", "experiment": "Anticancer activity against human SK-OV-3 cells assessed as cell growth inhibition incubated for 72 hrs by MTT assay", "assay_type": "functional"}, "[4]": {"experiment": "Cytotoxicity against human HaCaT cells assessed as cell growth inhibition incubated for 72 hrs by MTT assay", "assay_type": "toxicity, cell-based"}, "[5]": {"experiment": "Cytotoxicity against mitogen activated human peripheral blood lymphocytes assessed as cell growth inhibition incubated for 24 hrs by MTT assay", "assay_type": "toxicity, cell-based, Lymphocyte"}, "[6]": {"experiment": "Cytotoxicity against mitogen activated human peripheral blood lymphocytes assessed as cell growth inhibition incubated for 48 hrs by MTT assay", "assay_type": "toxicity, cell-based, Lymphocyte"}, "Jurkat [7]": {"test_system": "Jurkat", "experiment": "Induction of morphological changes in human Jurkat cells assessed as change in cell shape incubated for 24 hrs by Hoechst 33258 and propidium iodide staining based fluorescence microscopy", "assay_type": "functional"}, "Jurkat [8]": {"test_system": "Jurkat", "experiment": "Induction of morphological changes in human Jurkat cells assessed as chromatin topology incubated for 24 hrs by Hoechst 33258 and propidium iodide staining based fluorescence microscopy", "assay_type": "functional, cell-based"}, "Jurkat [9]": {"test_system": "Jurkat", "experiment": "Induction of morphological changes in human Jurkat cells assessed as chromatin condensation incubated for 24 hrs by Hoechst 33258 and propidium iodide staining based fluorescence microscopy", "assay_type": "functional, cell-based"}, "Jurkat [10]": {"test_system": "Jurkat", "experiment": "Induction of morphological changes in human Jurkat cells assessed as chromatin fragmentation incubated for 24 hrs by Hoechst 33258 and propidium iodide staining based fluorescence microscopy", "assay_type": "functional, cell-based"}, "Jurkat [11]": {"test_system": "Jurkat", "experiment": "Induction of morphological changes in human Jurkat cells assessed as plasma membrane blebbing incubated for 24 hrs by Hoechst 33258 and propidium iodide staining based fluorescence microscopy", "assay_type": "functional, cell-based"}, "Jurkat [12]": {"test_system": "Jurkat", "experiment": "Induction of apoptosis in human Jurkat cells assessed as increase in cleaved capase-3 level at 0.5 uM for 24 hrs by Western blot analysis", "assay_type": "functional, cell-based"}, "Jurkat [13]": {"test_system": "Jurkat", "experiment": "Induction of apoptosis in human Jurkat cells assessed as increase in Bax level at 0.5 uM for 24 hrs by Western blot analysis", "assay_type": "functional, cell-based"}, "Jurkat [14]": {"test_system": "Jurkat", "experiment": "Induction of apoptosis in human Jurkat cells assessed as decrease in Bcl-2 level at 0.5 uM for 24 hrs by Western blot analysis", "assay_type": "functional, cell-based"}, "Jurkat [15]": {"test_system": "Jurkat", "experiment": "Induction of apoptosis in human Jurkat cells assessed as decrease in Endo-G protein level at 0.5 uM for 24 hrs by Western blot analysis", "assay_type": "functional, cell-based"}, "Salmon testes DNA [16]": {"test_system": "Salmon testes DNA", "experiment": "Displacement of methyl green from salmon sperm DNA at 10 uM measured after 2 hrs by fluorescence plate reader method relative to control", "assay_type": "nucleic-acid assay", "conditions": "Salmo salar"}, "Salmon testes DNA [17]": {"test_system": "Salmon testes DNA", "experiment": "Binding affinity to double stranded salmon sperm DNA assessed as increase in DNA oxidation level by measuring net change in absorbance at 10 uM incubated for 1 hr by UV based spectroscopic method", "assay_type": "nucleic-acid assay", "conditions": "Salmo salar"}, "Jurkat [18]": {"test_system": "Jurkat", "experiment": "Induction of DNA damage in human Jurkat cells assessed as tail DNA at 0.5 uM incubated for 24 hrs by alkaline Comet assay", "assay_type": "functional"}, "Lymphocyte [19]": {"test_system": "Lymphocyte", "experiment": "Induction of DNA damage in mitogen activated human peripheral blood lymphocytes assessed as tail DNA at 0.5 uM incubated for 24 hrs by alkaline Comet assay", "assay_type": "toxicity, cell-based"}, "HCT-116 [20]": {"test_system": "HCT-116", "experiment": "Induction of DNA damage in human HCT-116 cells assessed as tail DNA at 0.5 uM incubated for 2 hrs by alkaline Comet assay", "assay_type": "functional"}, "HCT-116 [21]": {"test_system": "HCT-116", "experiment": "Induction of DNA damage in human HCT-116 cell lysate assessed as tail DNA at 0.5 uM incubated for 2 hrs in dark by Comet assay", "assay_type": "functional"}, "Jurkat [22]": {"test_system": "Jurkat", "experiment": "Induction of DNA damage in human Jurkat cells assessed as olive tail moment at 0.5 uM incubated for 24 hrs by alkaline Comet assay", "assay_type": "functional"}, "Lymphocyte [23]": {"test_system": "Lymphocyte", "experiment": "Induction of DNA damage in mitogen activated human peripheral blood lymphocytes assessed as olive tail moment at 0.5 uM incubated for 24 hrs by alkaline Comet assay", "assay_type": "toxicity, cell-based"}, "HCT-116 [24]": {"test_system": "HCT-116", "experiment": "Induction of DNA damage in human HCT-116 cells assessed as olive tail moment at 0.5 uM incubated for 2 hrs by alkaline Comet assay", "assay_type": "functional"}, "HCT-116 [25]": {"test_system": "HCT-116", "experiment": "Induction of DNA damage in human HCT-116 cell lysate assessed as olive tail moment at 0.5 uM incubated for 2 hrs in dark by Comet assay", "assay_type": "functional"}},
  "note": "The source made the active and inactive calls. The calls are words filed in the database; no cut-off is given here.",
  "data": [
    {"smiles": "COc1cccc2c1C(=O)c1c(O)c3c(c(O)c1C2=O)C[C@@](O)(C(=O)CO)C[C@@H]3O[C@H]1C[C@H](N)[C@H](O)[C@H](C)O1", "note": "[DOXORUBICIN]", "values": [
      {"measurement": "GI50", "setting": "Jurkat [1]", "result": 0.43, "unit": "µM"},
      {"measurement": "GI50", "setting": "A549", "result": 0.97, "unit": "µM"},
      {"measurement": "GI50", "setting": "MCF7", "result": 0.75, "unit": "µM"},
      {"measurement": "GI50", "setting": "MDA-MB-231", "result": 5.95, "unit": "µM"},
      {"measurement": "GI50", "setting": "KB 3-1", "result": 0.98, "unit": "µM"},
      {"measurement": "GI50", "setting": "HeLa", "result": 0.7, "unit": "µM"},
      {"measurement": "GI50", "setting": "HCT-116 [2]", "result": 0.57, "unit": "µM"},
      {"measurement": "GI50", "setting": "[3]", "result": 2.8, "unit": "µM"},
      {"measurement": "GI50", "setting": "U-251", "result": 0.89, "unit": "µM"},
      {"measurement": "GI50", "setting": "SK-OV-3", "result": 9.1, "unit": "µM"},
      {"measurement": "GI50 at 72 h", "setting": "[4]", "result": 0.64, "unit": "µM"},
      {"measurement": "GI50 at 24 h", "setting": "[5]", "result": 2.9, "unit": "µM"},
      {"measurement": "GI50 at 48 h", "setting": "[6]", "result": 0.5, "unit": "µM"},
      {"measurement": "Activity", "setting": "Jurkat [7]", "result": "Active"},
      {"measurement": "Activity", "setting": "Jurkat [8]", "result": "Active"},
      {"measurement": "Activity", "setting": "Jurkat [9]", "result": "Active"},
      {"measurement": "Activity", "setting": "Jurkat [10]", "result": "Active"},
      {"measurement": "Activity", "setting": "Jurkat [11]", "result": "Active"},
      {"measurement": "Activity", "setting": "Jurkat [12]", "result": "Active"},
      {"measurement": "Activity", "setting": "Jurkat [13]", "result": "Active"},
      {"measurement": "Activity", "setting": "Jurkat [14]", "result": "Active"},
      {"measurement": "Activity", "setting": "Jurkat [15]", "result": "Active"},
      {"measurement": "Activity", "setting": "Salmon testes DNA [16]", "result": 68.7, "unit": "%"},
      {"measurement": "Activity", "setting": "Salmon testes DNA [17]", "result": "Active"},
      {"measurement": "Activity", "setting": "Jurkat [18]", "result": 40.9, "unit": "%"},
      {"measurement": "Activity", "setting": "Lymphocyte [19]", "result": 25.9, "unit": "%"},
      {"measurement": "Activity", "setting": "HCT-116 [20]", "result": 18, "unit": "%"},
      {"measurement": "Activity", "setting": "HCT-116 [21]", "result": 12.6, "unit": "%"},
      {"measurement": "Activity", "setting": "Jurkat [22]", "result": 12.23, "unit": "%"},
      {"measurement": "Activity", "setting": "Lymphocyte [23]", "result": 8.12, "unit": "%"},
      {"measurement": "Activity", "setting": "HCT-116 [24]", "result": 1, "unit": "%"},
      {"measurement": "Activity", "setting": "HCT-116 [25]", "result": 1.95, "unit": "%"}
    ]}
  ]
}
